The values below come from PubChem BioAssay AID250 (DTP/NCI, 2004).

For this test, the system named is BDF1 mice, L1210 leukemia sc, survival T/C. Kind of test: NCI In Vivo Anticancer Drug Screen. Data for tumor model L1210 Leukemia (subcutaneous) in B6D2F1 (BDF1) mice. The settings on record: endpoint: median survival time, higher = longer survival. In a few lines: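 Antitumor activity is assessed in mice with transplanted tumors by comparing the treated group (T) with the vehicle control group (C).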

Where [1] appears, read: dose: 3.0 mg/kg/injection, schedule: Q01DX Z (sc), vehicle: saline.
[2] abbreviates: dose: 5.0 mg/kg/injection, schedule: Q01DX Z (sc), vehicle: saline.
Setting [3] is: dose: 8.4 mg/kg/injection, schedule: Q01DX Z (sc), vehicle: saline.
The mark [4] stands for this setting: dose: 14.0 mg/kg/injection, schedule: Q01DX Z (sc), vehicle: saline.
The mark [5] stands for this setting: dose: 65.0 mg/kg/injection, schedule: Q01DX Z (sc), vehicle: saline.

Several values for one entry are separate records, joined by “and”; a condition that tells them apart may be missing. Equal values may be shown once. Inconclusive results and toxic doses are left out.

Take `CCOC(=O)c1ccc(N)nc1`: the T/C was 100 % of control (dose: 1.81 mg/kg/injection, schedule: Q01DX Z (sc), vehicle: water); 100 % of control (dose: 3.02 mg/kg/injection, schedule: Q01DX Z (sc), vehicle: water); 100 % of control (dose: 5.04 mg/kg/injection, schedule: Q01DX Z (sc), vehicle: water); 100 % of control (dose: 8.4 mg/kg/injection, schedule: Q01DX Z (sc), vehicle: water); 100 % of control (dose: 14.0 mg/kg/injection, schedule: Q01DX Z (sc), vehicle: water); 100 % of control (dose: 23.3 mg/kg/injection, schedule: Q01DX Z (sc), vehicle: water). In addition, the T/C (dose: 38.9 mg/kg/injection, schedule: Q01DX Z (sc), vehicle: water) was 100 % of control.

As to `C[n+]1cccc2cc(NC(=O)c3ccc(C(=O)Nc4ccc5c(ccc[n+]5C)c4)cc3)ccc21`, the T/C is 100 % of control under setting [1]; 100 % of control under setting [2]; 100 % of control under setting [3]; 105 % of control under setting [4]; 100 % of control (dose: 23.0 mg/kg/injection, schedule: Q01DX Z (sc), vehicle: saline); 233 % of control (dose: 39.0 mg/kg/injection, schedule: Q01DX Z (sc), vehicle: saline). Besides, the T/C under setting [5] was 172 % of control; the T/C (dose: 108.0 mg/kg/injection, schedule: Q01DX Z (sc), vehicle: saline) was 205 % of control; the T/C (dose: 180.0 mg/kg/injection, schedule: Q01DX Z (sc), vehicle: saline) was 194 % of control.

Turning to `N=[N+]=CC(=O)OCC(N)C(=O)O` (configuration not stated), the T/C runs as follows: under setting [1], 105 % of control; (dose: 4.0 mg/kg/injection, schedule: Q01DX Z (sc), vehicle: water) 110 % of control; under setting [2], 110 % of control; (dose: 6.72 mg/kg/injection, schedule: Q01DX Z (sc), vehicle: water) 110 % of control; (dose: 8.0 mg/kg/injection, schedule: Q01DX Z (sc), vehicle: water) 172 % of control; (dose: 8.0 mg/kg/injection, schedule: Q02DX Z (sc), vehicle: water) 100 % of control. In addition, the T/C under setting [3] is 110 % of control; the T/C (dose: 11.2 mg/kg/injection, schedule: Q01DX Z (sc), vehicle: water) was 110 % of control; the T/C under setting [4] was 120 % of control; the T/C (dose: 16.0 mg/kg/injection, schedule: Q01DX Z (sc), vehicle: water) is 168 % of control; the T/C (dose: 16.0 mg/kg/injection, schedule: Q02DX Z (sc), vehicle: water) was 100 % of control; the T/C (dose: 31.1 mg/kg/injection, schedule: Q01DX Z (sc), vehicle: water) is 120 % of control. For the same compound, the T/C (dose: 32.0 mg/kg/injection, schedule: Q02DX Z (sc), vehicle: water) was 100 % of control; the T/C (dose: 64.0 mg/kg/injection, schedule: Q01DX Z (sc), vehicle: water) is 118 % of control; the T/C under setting [5] was 100 % of control; the T/C (dose: 86.1 mg/kg/injection, schedule: Q01DX Z (sc), vehicle: water) was 110 % of control; the T/C (dose: 128.0 mg/kg/injection, schedule: Q02DX Z (sc), vehicle: water) is 100 % of control.

As for `CC(=O)Nc1ccc2nc3ccc(NC(C)=O)cc3[n+](-c3ccccc3)c2c1`, the T/C is 105 % of control (dose: 23.0 mg/kg/injection, schedule: Q01DX Z (sc), vehicle: methylcellulose (MC)) and 105 % of control (dose: 65.0 mg/kg/injection, schedule: Q01DX Z (sc), vehicle: methylcellulose (MC)).

As to `O=C(CCN1CC1)OCCOC(=O)CCN1CC1`, the T/C is, setting by setting: (dose: 4.7 mg/kg/injection, schedule: Q01DX Z (sc), vehicle: saline) 100 % of control; (dose: 7.8 mg/kg/injection, schedule: Q01DX Z (sc), vehicle: saline) 100 % of control; (dose: 13.0 mg/kg/injection, schedule: Q01DX Z (sc), vehicle: saline) 100 % of control; (dose: 21.0 mg/kg/injection, schedule: Q01DX Z (sc), vehicle: saline) 111 % of control.

With `N=C(N)SCc1c2ccccc2c(CSC(=N)N)c2ccccc12`, the T/C is 110 % of control (dose: 25.0 mg/kg/injection, schedule: Q01DX009 (ip), vehicle: steriod suspending solution); 110 % of control (dose: 50.0 mg/kg/injection, schedule: Q01DX009 (ip), vehicle: steriod suspending solution); 120 % of control (dose: 50.0 mg/kg/injection, schedule: Q01DX009 (sc), vehicle: steriod suspending solution); 100 % of control (dose: 50.0 mg/kg/injection, schedule: Q04DX003 (ip), vehicle: steriod suspending solution); 100 % of control (dose: 62.5 mg/kg/injection, schedule: Q01DX001 (ip), vehicle: steriod suspending solution); 110 % of control (dose: 100.0 mg/kg/injection, schedule: Q04DX003 (ip), vehicle: steriod suspending solution). The T/C by setting is: (dose: 100.0 mg/kg/injection, schedule: Q04DX003 (sc), vehicle: steriod suspending solution) 100 % of control; (dose: 125.0 mg/kg/injection, schedule: Q01DX001 (ip), vehicle: steriod suspending solution) 110 % of control; (dose: 125.0 mg/kg/injection, schedule: Q01DX001 (sc), vehicle: steriod suspending solution) 110 % of control; (dose: 200.0 mg/kg/injection, schedule: Q01DX009 (sc), vehicle: steriod suspending solution) 120 % of control; (dose: 200.0 mg/kg/injection, schedule: Q04DX003 (sc), vehicle: steriod suspending solution) 105 % of control; (dose: 250.0 mg/kg/injection, schedule: Q01DX001 (ip), vehicle: steriod suspending solution) 110 % of control. Further, the T/C was 110 % of control (dose: 400.0 mg/kg/injection, schedule: Q01DX009 (sc), vehicle: steriod suspending solution); 110 % of control (dose: 400.0 mg/kg/injection, schedule: Q04DX003 (sc), vehicle: steriod suspending solution); 105 % of control (dose: 500.0 mg/kg/injection, schedule: Q01DX001 (sc), vehicle: steriod suspending solution); 110 % of control (dose: 800.0 mg/kg/injection, schedule: Q01DX009 (sc), vehicle: steriod suspending solution); 100 % of control (dose: 800.0 mg/kg/injection, schedule: Q04DX003 (sc), vehicle: steriod suspending solution); 110 % of control (dose: 1000.0 mg/kg/injection, schedule: Q01DX001 (sc), vehicle: steriod suspending solution). Also, the T/C (dose: 2000.0 mg/kg/injection, schedule: Q01DX001 (sc), vehicle: steriod suspending solution) was 100 % of control.

With `COc1cc2c3c(c4ccc(OC)c(OC)c4c2cc1OC)CN1CCC[C@@H]1C3`, the T/C runs as follows: (dose: 3.0 mg/kg/injection, schedule: Q01DX Z (sc), vehicle: carboxymethylcellulose (CMC)) 100 % of control; (dose: 5.0 mg/kg/injection, schedule: Q01DX Z (sc), vehicle: carboxymethylcellulose (CMC)) 100 % of control; (dose: 8.4 mg/kg/injection, schedule: Q01DX Z (sc), vehicle: carboxymethylcellulose (CMC)) 100 % of control; (dose: 14.0 mg/kg/injection, schedule: Q01DX Z (sc), vehicle: carboxymethylcellulose (CMC)) 95 % of control; (dose: 23.0 mg/kg/injection, schedule: Q01DX Z (sc), vehicle: carboxymethylcellulose (CMC)) 90 % of control and 105 % of control; (dose: 39.0 mg/kg/injection, schedule: Q01DX Z (sc), vehicle: carboxymethylcellulose (CMC)) 100 % of control. Besides, the T/C was 110 % of control (dose: 65.0 mg/kg/injection, schedule: Q01DX Z (sc), vehicle: carboxymethylcellulose (CMC)); 105 % of control (dose: 108.0 mg/kg/injection, schedule: Q01DX Z (sc), vehicle: carboxymethylcellulose (CMC)); 115 % of control (dose: 180.0 mg/kg/injection, schedule: Q01DX Z (sc), vehicle: carboxymethylcellulose (CMC)).
